Laboratory results reported in US20220023289A1, “Application Of Pyrroloquinoline Quinone In Preparation Of Medicament Used For Preventing And Treating Acute Altitude Sickness And Acute Altitude Hypoxia Injury” (priority 2018, published 2022).

Experiments:
[1] = Body weight of mice before closed hypoxia tolerance test
[2] = Mice weight before hypoxia tolerance test of simulated 10000 m altitude acute decompression
[3] = test system: rats exposed to acute altitude hypoxia; assay: Blood glucose in rats exposed to acute altitude hypoxia (6000 m, 8 h, after 7 days intragastric); type: in vivo, Wistar rat
Protocol: (§1) Select healthy Wistar rats weight 160-200 g, half female and half male. After feeding for 3 days, these Wistar rats are randomly divided into ten groups according to their body weight, each group has 16±2 rats. The groups are divided as follows: five groups of the hypoxic exposure drug test group, respectively, are given 0.91 mg/kg, 1.83 mg/kg, 3.66 mg/kg, 7.31 mg/kg, and 14.63 mg/kg drugs. […] After continuous intragastric administration for 7 days, the animals in the hypoxic exposure group are simultaneously put into the decompression and hypoxia compound experimental chamber, the hatch is closed, and the pressure is reduced at a speed of 10 m/s. After being raised to an altitude of 6000 m and maintained for 8 hours, the speed in 10 m/s drops is reduced to normal altitude, open the hatch, and then take out the animal, collect blood samples (after standing for 1 hour, the supernatant is centrifuged and stored at −20° C.), and liver tissue samples. Detection indicator includes body weight, serum blood glucose, ATP, lactic acid, endothelin, nitric oxide, SOD, CO, MDA related to oxidative stress, and total protein, albumin, triglycerides, total cholesterol, high-density lipoprotein cholesterol, low-density lipoprotein cholesterol, glutamic pyruvic transaminase, total bilirubin, gluamic oxalacetic transaminase, serum urea nitrogen, creatinine, uric acid, lactate dehydrogenase, creatine kinase, α-hydroxybutyrate dehydrogenase; liver ATP, hepatic glycogen. Except that the formal oxygen control animal group is not put into the decompression and hypoxia compound experimental chamber, other experimental conditions and detection indicators are the same.
Measure blood glucose, total protein, albumin, triglycerides, total cholesterol, high-density lipoprotein cholesterol, low-density lipoprotein cholesterol, glutamic-pyruvic transaminase, total bilirubin, glutamic oxalacetic transaminase, serum urea nitrogen, creatinine, uric acid, lactate dehydrogenase, creatine kinase, α-hydroxybutyrate dehydrogenase, blood homocysteine by using an automatic blood biochemical analyzer.

[4] = Rat body weight before the acute decompression hypoxia experiment (intragastric 7 days)
Protocol: as §1

[5] = administration for 14 days, 1.32 mg/kg
[6] = administration for 14 days, 2.64 mg/kg
[7] = administration for 14 days, 5.28 mg/kg
[8] = administration for 14 days, 10.56 mg/kg
[9] = administration for 14 days, 21.12 mg/kg
[10] = administration for seven days, 1.32 mg/kg
[11] = administration for seven days, 2.64 mg/kg
[12] = administration for seven days, 5.28 mg/kg
[13] = administration for seven days, 10.56 mg/kg
[14] = administration for seven days, 21.12 mg/kg
[15] = administration for three days, 1.32 mg/kg
[16] = administration for three days, 2.64 mg/kg
[17] = administration for three days, 5.28 mg/kg
[18] = administration for three days, 10.56 mg/kg
[19] = administration for three days, 21.12 mg/kg
[20] = seven days, repeat experiment in male mice, 1.32 mg/kg
[21] = seven days, repeat experiment in male mice, 2.64 mg/kg
[22] = seven days, repeat experiment in male mice, 5.28 mg/kg
[23] = seven days, repeat experiment in male mice, 10.56 mg/kg
[24] = seven days, repeat experiment in male mice, 21.12 mg/kg

O=C(O)c1cc(C(=O)O)c2c(n1)C(=O)C(=O)c1cc(C(=O)O)[nH]c1-2 [PQQ, pyrroloquinoline quinone]
weight 1 day ([1]; female mice, 1.32 mg/kg): 20.31 ± 1.29 g
weight 3 days ([1]; female mice, 1.32 mg/kg): 22.33 ± 1.91 g
weight 1 day ([1]; female mice, 2.64 mg/kg): 19.83 ± 1.19 g
weight 3 days ([1]; female mice, 2.64 mg/kg): 22.22 ± 1.28 g
weight 1 day ([1]; female mice, 5.28 mg/kg): 20.58 ± 1.07 g
weight 3 days ([1]; female mice, 5.28 mg/kg): 22.52 ± 1.71 g
weight 1 day ([1]; female mice, 10.56 mg/kg): 20.13 ± 1.64 g
weight 3 days ([1]; female mice, 10.56 mg/kg): 21.92 ± 1.83 g
weight 1 day ([1]; female mice, 21.12 mg/kg): 20.19 ± 1.34 g
weight 3 days ([1]; female mice, 21.12 mg/kg): 22.49 ± 1.77 g
weight 1 day ([1]; male mice, 1.32 mg/kg): 15.46 ± 1.04 g
weight 3 days ([1]; male mice, 1.32 mg/kg): 17.74 ± 1.30 g
weight 1 day ([1]; male mice, 2.64 mg/kg): 15.40 ± 1.03 g
weight 3 days ([1]; male mice, 2.64 mg/kg): 17.46 ± 1.29 g
weight 1 day ([1]; male mice, 5.28 mg/kg): 15.51 ± 1.11 g
weight 3 days ([1]; male mice, 5.28 mg/kg): 17.41 ± 1.23 g
weight 1 day ([1]; male mice, 10.56 mg/kg): 15.32 ± 1.10 g
weight 3 days ([1]; male mice, 10.56 mg/kg): 16.20 ± 1.03 g
weight 1 day ([1]; male mice, 21.12 mg/kg): 15.45 ± 0.97 g
weight 3 days ([1]; male mice, 21.12 mg/kg): 17.54 ± 1.14 g
Mice weight Female 1 day [2, 5]: 16.13 ± 1.20 g
Mice weight Female 7 days [2, 5]: 20.45 ± 1.37 g
Mice weight Male 1 day [2, 5]: 16.36 ± 1.47 g
Mice weight Male 7 days [2, 5]: 22.88 ± 1.78 g
Mice weight Male 14 days [2, 5]: 30.85 ± 2.32 g
Mice weight Female 1 day [2, 6]: 15.75 ± 1.07 g
Mice weight Female 7 days [2, 6]: 21.41 ± 1.62 g
Mice weight Male 1 day [2, 6]: 16.63 ± 1.87 g
Mice weight Male 7 days [2, 6]: 22.58 ± 1.41 g
Mice weight Male 14 days [2, 6]: 28.13 ± 2.70 g
Mice weight Female 1 day [2, 7]: 15.63 ± 1.12 g
Mice weight Female 7 days [2, 7]: 20.47 ± 2.11 g
Mice weight Male 1 day [2, 7]: 17.01 ± 1.91 g
Mice weight Male 7 days [2, 7]: 23.68 ± 2.02 g
Mice weight Male 14 days [2, 7]: 29.44 ± 2.15 g
Mice weight Female 1 day [2, 8]: 15.84 ± 1.33 g
Mice weight Female 7 days [2, 8]: 21.68 ± 1.66 g
Mice weight Male 1 day [2, 8]: 16.58 ± 1.68 g
Mice weight Male 7 days [2, 8]: 23.13 ± 1.73 g
Mice weight Male 14 days [2, 8]: 19.58 ± 2.11 g
Mice weight Female 1 day [2, 9]: 15.68 ± 0.91 g
Mice weight Female 7 days [2, 9]: 20.10 ± 2.07 g
Mice weight Male 1 day [2, 9]: 16.86 ± 1.71 g
Mice weight Male 7 days [2, 9]: 23.67 ± 1.77 g
Mice weight Male 14 days [2, 9]: 30.81 ± 2.76 g
Mice weight Female 1 day [2, 10]: 18.10 ± 1.19 g
Mice weight Female 7 days [2, 10]: 21.36 ± 1.98 g
Mice weight Male 1 day [2, 10]: 18.46 ± 1.36 g
Mice weight Male 7 days [2, 10]: 22.19 ± 2.69 g
Mice weight Female 1 day [2, 11]: 18.19 ± 1.24 g
Mice weight Female 7 days [2, 11]: 21.40 ± 1.92 g
Mice weight Male 1 day [2, 11]: 18.31 ± 1.01 g
Mice weight Male 7 days [2, 11]: 23.51 ± 3.09 g
Mice weight Female 1 day [2, 12]: 17.95 ± 1.28 g
Mice weight Female 7 days [2, 12]: 22.71 ± 1.38 g
Mice weight Male 1 day [2, 12]: 18.38 ± 1.85 g
Mice weight Male 7 days [2, 12]: 22.04 ± 3.25 g
Mice weight Female 1 day [2, 13]: 17.99 ± 1.41 g
Mice weight Female 7 days [2, 13]: 22.66 ± 1.68 g
Mice weight Male 1 day [2, 13]: 18.26 ± 1.15 g
Mice weight Male 7 days [2, 13]: 22.41 ± 1.79 g
Mice weight Female 1 day [2, 14]: 18.35 ± 1.62 g
Mice weight Female 7 days [2, 14]: 23.94 ± 2.10 g
Mice weight Male 1 day [2, 14]: 18.00 ± 1.78 g
Mice weight Male 7 days [2, 14]: 23.54 ± 3.92 g
Mice weight Female [2, 15]: 18.22 ± 1.16 g
Mice weight Male [2, 15]: 19.97 ± 0.84 g
Mice weight Female [2, 16]: 18.79 ± 1.14 g
Mice weight Male [2, 16]: 19.65 ± 0.83 g
Mice weight Female [2, 17]: 18.10 ± 0.76 g
Mice weight Male [2, 17]: 20.16 ± 1.18 g
Mice weight Female [2, 18]: 17.95 ± 1.14 g
Mice weight Male [2, 18]: 19.73 ± 0.85 g
Mice weight Female [2, 19]: 18.48 ± 1.01 g
Mice weight Male [2, 19]: 19.28 ± 0.95 g
Mice weight Male 1 day [2, 20]: 19.84 ± 1.84 g
Mice weight Male 7 days [2, 20]: 27.14 ± 2.66 g
Mice weight Male 1 day [2, 21]: 19.66 ± 1.08 g
Mice weight Male 7 days [2, 21]: 26.78 ± 3.14 g
Mice weight Male 1 day [2, 22]: 19.75 ± 1.27 g
Mice weight Male 7 days [2, 22]: 26.47 ± 2.88 g
Mice weight Male 1 day [2, 23]: 19.90 ± 1.06 g
Mice weight Male 7 days [2, 23]: 27.33 ± 2.27 g
Mice weight Male 1 day [2, 24]: 19.85 ± 1.00 g
Mice weight Male 7 days [2, 24]: 26.73 ± 2.37 g
Mice weight Female ([2]; single dose test, 2.64 mg/kg): 17.25 ± 1.23 g
Mice weight Male ([2]; single dose test, 2.64 mg/kg): 19.71 ± 0.52 g
Mice weight Female ([2]; single dose test, 5.28 mg/kg): 17.32 ± 1.35 g
Mice weight Male ([2]; single dose test, 5.28 mg/kg): 19.51 ± 0.68 g
Mice weight Female ([2]; single dose test, 10.56 mg/kg): 17.24 ± 0.96 g
Mice weight Male ([2]; single dose test, 10.56 mg/kg): 19.16 ± 0.34 g
effect on blood glucose ([3]; acute hypoxia exposed female rats): increasing blood glucose
Blood sugar ([3]; female rats, hypoxia, 0.91 mg/kg): 8.59 ± 0.48 mmol/L
Blood sugar ([3]; female rats, hypoxia, 1.83 mg/kg): 8.28 ± 0.84 mmol/L
Blood sugar ([3]; female rats, hypoxia, 3.66 mg/kg): 8.27 ± 0.37 mmol/L
Blood sugar ([3]; female rats, hypoxia, 7.31 mg/kg): 7.91 ± 0.65 mmol/L
Blood sugar ([3]; female rats, hypoxia, 14.63 mg/kg): 7.55 ± 0.48 mmol/L
effect on blood glucose ([3]; female rats, normoxia): no significant effects
Blood sugar ([3]; female rats, normoxia, 3.66 mg/kg): 8.13 ± 0.57 mmol/L
effect on blood glucose level ([3]; male rats): no significant effects
Blood sugar ([3]; male rats, hypoxia, 0.91 mg/kg): 7.35 ± 1.94 mmol/L
Blood sugar ([3]; male rats, hypoxia, 1.83 mg/kg): 8.21 ± 1.46 mmol/L
Blood sugar ([3]; male rats, hypoxia, 3.66 mg/kg): 8.97 ± 1.44 mmol/L
Blood sugar ([3]; male rats, hypoxia, 7.31 mg/kg): 8.28 ± 1.57 mmol/L
Blood sugar ([3]; male rats, hypoxia, 14.63 mg/kg): 8.85 ± 2.04 mmol/L
rat body weight Female 1 day ([4]; 0.91 mg/kg): 154.4 ± 7.2 g
rat body weight Female 7 days ([4]; 0.91 mg/kg): 169.6 ± 3.3 g
rat body weight Male 1 day ([4]; 0.91 mg/kg): 173.4 ± 7.4 g
rat body weight Male 7 days ([4]; 0.91 mg/kg): 196.4 ± 5.7 g
rat body weight Female 1 day ([4]; 1.83 mg/kg): 153.6 ± 6.9 g
